This is an account of results in PubChem BioAssay (NCI).

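Five compound concentrations were applied to cells in 96-well plates for 48 hours; endpoints were derived by simple linear interpolation of the resulting dose-response curve. GI50 is the concentration that inhibits growth by half. TGI marks complete inhibition of growth.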

Test systems include SF-539 CNS; T-47D breast; A498 renal; SNB-19 CNS; OVCAR-4 ovarian; NCI-H460 lung; TK-10 renal; MDA-N; XF 498 CNS; SW-620 colon.
Common to all, as to assay: DTP human tumour cell line panel, 48 h

One may read the TGI as the concentration giving total growth inhibition. A high value points to lower sensitivity of the cells. Take `CCN(CC)CCNc1ccc2ncn3c4ccc(O)cc4c(=O)c1c23`: the TGI in the test with SF-539 CNS was 16.9 µM; in the test on T-47D breast it was 30.7 µM; in the test on A498 renal it was 13.7 µM; with SNB-19 CNS, 19.2 µM; in the test on OVCAR-4 ovarian it was 9.81 µM; in the test on NCI-H460 lung, 12.2 µM. Besides, the TGI is 20.1 µM with TK-10 renal, 17.9 µM in the test with MDA-N, 7.42 µM in the test on XF 498 CNS and 8.84 µM in the test on SW-620 colon.
For `CSCCC(C(=O)O)N(C)C` (stereo not drawn), the TGI in the test on SF-539 CNS, in the test on T-47D breast, in the test with A498 renal, in the test on SNB-19 CNS, in the test on OVCAR-4 ovarian and with NCI-H460 lung was > 100 µM each time. For the same compound, the TGI with TK-10 renal, with MDA-N and with SW-620 colon was > 100 µM throughout.
In general, GI50 refers to the concentration at which growth is held to half of that of the control. As for `C=C(C#N)C(=O)OCC(CC)CC.C=C(C#N)C(=O)OCC(CC)CC.CS(C)=O.CS(C)=O.Nc1c(N=Nc2ccc(-c3ccc(N=Nc4cc(S(=O)(=O)[O-])c5ccccc5c4N)cc3)cc2)cc(S(=O)(=O)[O-])c2ccccc12.[Pt+2]`, the GI50 in the test with SF-539 CNS is 84.7 µM; with A498 renal, > 71.4 µM; in the test on SNB-19 CNS, > 100 µM; in the test on OVCAR-4 ovarian, 33.7 µM; with NCI-H460 lung it was 44.4 µM; with XF 498 CNS, 21.1 µM. The GI50 with SW-620 colon is 25 µM. For the same compound, the TGI in the test on SF-539 CNS was > 100 µM; with A498 renal, > 100 µM; in the test with SNB-19 CNS, > 100 µM; in the test with OVCAR-4 ovarian it was 99.2 µM; in the test on NCI-H460 lung, > 100 µM; with XF 498 CNS, 40.9 µM. This compound also showed a TGI in the test on SW-620 colon of 46.2 µM.
For the compound `O=C1c2cc(O)c(O)cc2O[C@H](c2ccc(O)c(O)c2)[C@H]1O`, the TGI with SF-539 CNS, with T-47D breast, in the test on A498 renal, in the test on SNB-19 CNS, in the test on NCI-H460 lung and in the test with TK-10 renal was > 100 µM in each case. The TGI in the test with MDA-N and in the test with SW-620 colon was > 100 µM in each case.
For the compound `CN1C(=O)CC(=O)N1/C(=C/c1ccccc1)c1ccccc1`, the TGI in the test with T-47D breast was > 100 µM; in the test with SNB-19 CNS it was > 100 µM; in the test on OVCAR-4 ovarian, > 100 µM; in the test with NCI-H460 lung, > 100 µM; with TK-10 renal, 91.9 µM; in the test on MDA-N, > 100 µM. Further, the TGI in the test with SW-620 colon was > 100 µM.
As to `O=C1c2cc3c(cc2-c2c1c1ccc(Cl)cc1c(=O)n2C[C@H](O)CO)OCO3`, the GI50 with SF-539 CNS was 0.0253 µM; with T-47D breast, 0.0315 µM; with A498 renal, 0.0387 µM; in the test with TK-10 renal, 0.277 µM; in the test with SW-620 colon, 0.02 µM. Also, the TGI in the test on SF-539 CNS is 0.093 µM; in the test with T-47D breast it was > 100 µM; in the test on A498 renal it was 0.16 µM; in the test with TK-10 renal, 1.76 µM; with SW-620 colon, 1.02 µM.
For the compound `O=c1[nH]c2[nH]c(=S)[nH]c(=S)c2[nH]1`, the TGI with T-47D breast, with A498 renal, in the test with SNB-19 CNS, with OVCAR-4 ovarian, in the test with NCI-H460 lung and with TK-10 renal was > 100 µM in each case. Besides, the TGI in the test with MDA-N and in the test with SW-620 colon was > 100 µM each time.
As to `C=CCNC(=O)C(C)C1CCC2(C)C=CC(=O)C(C)=C2C1O` (stereo not drawn), the TGI in the test on SF-539 CNS, in the test with A498 renal, in the test on SNB-19 CNS, in the test on OVCAR-4 ovarian, in the test with NCI-H460 lung and in the test on XF 498 CNS was > 100 µM in each case. In addition, the TGI with SW-620 colon was > 100 µM.
With `COc1ccc2nc3cc(Cl)ccc3c(NC(C)CCCN(CCCl)CCCl)c2c1` (stereo not drawn), the TGI with SF-539 CNS came to 3 µM; in the test with A498 renal, 18.7 µM; in the test on SNB-19 CNS, 7.15 µM; in the test with OVCAR-4 ovarian, 4.33 µM; in the test on NCI-H460 lung it was 1.58 µM; with TK-10 renal it was 6.04 µM. Besides, the TGI in the test with XF 498 CNS was found to be 4.43 µM; with SW-620 colon, 2.07 µM.
For the compound `Oc1ccc(C(=C(Br)c2ccccc2)c2ccc(O)cc2)cc1`, the TGI stood at 18.8 µM with SF-539 CNS; 46.2 µM with T-47D breast; 34.2 µM with A498 renal; 17.1 µM in the test on SNB-19 CNS; 31.6 µM in the test with NCI-H460 lung; 31.8 µM with TK-10 renal. Moreover, the TGI with MDA-N stood at 4.1 µM; in the test with SW-620 colon, 14.9 µM.
Turning to `O=C1c2ccccc2C(=O)c2[nH]cnc21`, the TGI in the test with SF-539 CNS, with A498 renal, with SNB-19 CNS, with OVCAR-4 ovarian, in the test with NCI-H460 lung and in the test on TK-10 renal was > 100 µM throughout. The same compound showed a TGI with XF 498 CNS of 99.4 µM.
`O=C1C(Cl)N(c2ccccc2Cl)C1c1c[nH]c2ccccc12` (stereo not drawn): the TGI in the test on SF-539 CNS, with SNB-19 CNS, with OVCAR-4 ovarian, with NCI-H460 lung, in the test with TK-10 renal and in the test on XF 498 CNS was > 100 µM each time. For the same compound, in the test with SW-620 colon, the TGI was > 100 µM.
